Source: patent US9446019B2, “Sparstolonin B based pharmaceutical agent for neuroblastoma treatment” (University of South Carolina, priority 2013, dated 2016)

Key:
Type in all cases: cell-based, human
[1] = tested on: reactive oxygen species in neuroblastoma cells; experiment: ROS generation, H2DCFDA staining, fluorescence microscopy; conditions: SsnB 10 μM; SH-SY5Y and other neuroblastoma lines; p<0.05
Method: The production of reactive oxygen species (ROS) in SsnB-treated neuroblastoma cells was detected by a cell-permeable fluorescence probe H2DCFDA (carboxy-2′,7′-dichlorodihydrofluorescein diacetate) according to the manufacturer's instructions (Invitrogen, Carlsbad, Calif.). Briefly, neuroblastoma cells were cultured in DMEM with 10% FBS in Lab-TekII chamber slides (Fisher Scientific, Pittsburg, Pa.) and treated with SsnB for 2 days (SH-SY5Y and IMR-32 cells), 3 days (NGP cell) or 4 days (SKNF-1 and SK-N-BE(2) cells). […] Cells were washed three times with HBSS, mounted with Vectashield mounting medium (Vector Laboratories), and immediately examined under Nikon-E600 fluorescence microscopy equipped with fluorescein isothiocyanate (FITC) filter. Oxidation of H2DCFDA probe occurs almost exclusively in the cytosol, and generates a fluorescence that is proportional to ROS generation in that cell. […] Cells were trypsinized, washed, and re-suspended in PBS and fluorescence intensity was monitored at excitation wavelength 485 nm and emission wavelength 530 nm with a spectramax spectrophotometer (Molecular Devices, Sunnyvale, Calif.).
To test whether SsnB-induced cell death resulted from increased level of ROS, H2DCFDA staining was performed. […] The carboxy-DCF positive cells were quantitated by imageJ software and plotted. […]

[2] = tested on: N-myc in IMR-32, NGP and SK-N-BE(2) cells; experiment: N-myc protein level by Western blotting
Method: After treatment with SsnB, cells were collected, washed with 1×PBS, and lysed with 1× cell lysis buffer (Cell Signaling Technology, Danvers, Mass.) containing phenylmethylsulfonyl fluoride (PMSF) and protease inhibitors (aprotinin and leupeptin) for 30 min on ice, and centrifuged at 12000×rpm for 10 min at 4° C. Supernatant (total cell protein) was collected and stored at −80° C. Protein concentration was determined by bicinchoninic acid method using BCA protein assay kit (Pierce/ThermoScientific, Waltham, Mass.). Equal amount of proteins were diluted with 5× Laemmli samples loading buffer and boiled for five minutes. The proteins were subjected to sodium dodecyl sulfate (SDS)-polyacrylamide gel electrophoresis and analyzed by Western blots. Briefly, after electrophoresis, proteins were transferred on polyvinylidene difluoride (PVDF) membrane at 100 volt for 3 h in cold room. […] Signals were detected by chemiluminiscence detection kit (Pierce/Thermo Fisher Scientific, Rockford, Ill.). […]
The level of N-myc proteins was evaluated from 2 days (IMR-32), 3 days (NGP cells) or 4 days (SK-N-BE(2) cells) SsnB-treated N-myc amplified neuroblastoma cells by Western blotting, and protein signal intensity was measured by ImageJ programme and plotted. […]

[3] = tested on: SK-N-BE(2) and SH-SY5Y cells; experiment: Two layer soft agarose colony formation assay; conditions: SsnB 10 μM, 45 days
Method: A two layer soft agarose assay system was used in these studies. Approximately 1×10^4 cells were suspended in 0.35% agarose in DMEM with 10% FBS, and were gently laid on the bottom agarose layer containing 0.8% agarose with DMEM+10% FBS in 35 mm^2 cell culture dishes. Once solidified, the dishes were incubated at 37° C. in a humidified chamber with 5% CO2. Next day, 500 μl of complete cell culture medium with respective concentrations of SsnB was added, and cells were allowed to grow for 45 days in an incubator chamber. Fresh medium with respective concentrations of SsnB was added to the dishes in every 5 days. Cells treated with equal volume of DMSO were used as control. At the end of experiments, cells were stained with 0.1% crystal violet and cell colonies (more than 15 cells per colony) were counted under the light microscope.
The anti-proliferative activity of SsnB to affects the tumor progression property of neuroblastoma cells was tested by performing two layer agarose gel colony formation assays. Agarose gel colony formation assay is an anchorage-independent in vitro cell transformation assay, and mimics the process of in vivo carcinogenesis. Neuroblastoma cells (N-myc amplified cell, SK-N-BE(2), and N-myc nonamplified cell, SH-SY5Y) were grown in agarose in presence or absence of SsnB (1 μM and 10 μM) and after 45 days the number of colonies was counted.

## O=c1occ2c3c(ccc(O)c13)Oc1ccc(O)cc1-2 [SsnB, 8,5′-dihydroxy-4-phenyl-5,2′-oxidoisocoumarin]
[1]
  number of carboxy-DCF positive cells vs DMSO: significantly increased
[2]; SsnB 1 μM, nonsignificant vs control
  reduction in N-myc protein expression: not observed
[2]; SsnB 10 μM, 2 days (IMR-32), 3 days (NGP), 4 days (SK-N-BE(2))
  N-myc protein expression: inhibited the expression of N-myc protein
[3]; vs control and SsnB 1 μM
  size of colonies: significantly smaller
[3]; p<0.05 vs control
  colony formation capability (number of colonies): significantly inhibited the colony formation capability
